Where two headings read alike, the source gives them in different places.
Tests used:
[1] = system: VCAP; experiment: CellTiter-Glo chemiluminescent cell viability assay (CTG method), VCAP; type: cell-based; conditions: VCAP cells, 72 h; for IC50: read-out: Absolute IC50
Method: (§1) Half-maximal inhibitory concentrations (IC50) of abiraterone acetate and LHY-AB614 for proliferation of LNCAP clone FGC and VCAP were assessed by a CellTiter-Glo® chemiluminescent cell viability assay (namely, a CTG method). Cells in an exponential phase were collected, and live cells were counted. Each cell suspension was adjusted with a corresponding medium to an appropriate concentration. 90 μL of a cell suspension was added to each well of a 96-well plate and cultivated in a 37° C. and 5% CO2 incubator for 24 h. A sample to be tested was dissolved in DMSO to prepare a stock solution with a starting concentration of 50 μM, and the stock solution was 3-fold diluted with a medium to obtain 10× working solutions with 9 concentrations. Cisplatin, as a reference compound, was dissolved in DMSO to prepare a stock solution with a starting concentration of 100 μM, and the stock solution was 3-fold diluted with a medium to obtain 10× working solutions with 9 concentrations. 10 μL of a working solution was added to cells in each well, and then the cells were cultivated in a 37° C. and 5% CO2 incubator for 72 h. The 96-well plate was equilibrated at room temperature for about 30 min, then 50 μL of a CTG solution was added to each well, and the 96-well plate was shaken on a microplate shaker for 2 min to perform cell lysis and placed at room temperature for 20 min to stabilize a fluorescence signal. A fluorescence signal value was determined with an Envision2104 plate reader. On the GraphPad Prism software, a nonlinear regression model was used to plot an S-type dose-response curve and calculate an IC50 value.

[2] = system: LNCAP clone FGC; experiment: CellTiter-Glo chemiluminescent cell viability assay (CTG method), LNCAP; type: cell-based; conditions: LNCAP cells, 72 h; for IC50: read-out: Absolute IC50
Method: as §1

[3] = Comparative study of pharmacokinetic properties in Beagle dogs (oral); type: in vivo
Method: Four healthy Beagle dogs with body weights in a range of 6 kg to 8 kg were selected. The Beagle dogs were fasted for 12 h the day before an experiment, and all were given a low-fat standard meal after administration. The Beagle dogs should not be administered with other drugs two weeks before the experiment and during the experiment. The four Beagle dogs were randomly divided into a group A and a group B (2 dogs in each group). LHY-AB614 was administered orally at a dose of 46.8 mg/kg (32.2 mg/kg based on abiraterone), and abiraterone acetate was administered orally at a dose of 42.3 mg/kg (37.8 mg/kg based on abiraterone). Blank blood was collected in an EDTA-K2 anticoagulation tube before administration, and at 0.25 h, 0.5 h, 1.0 h, 2.0 h, 4.0 h, 6.0 h, 8.0 h, and 24.0 h after administration, 1 mL of blood was collected in EDTA-K2 anticoagulation tubes. After blood was fully mixed with an anticoagulant, each of the anticoagulation tubes was immediately placed in ice and centrifuged as soon as possible to isolate plasma, and the isolated plasma was stored in labeled EP tubes. 50 μL of a plasma sample was taken, 300 μL of a 10 ng/mL carbamazepine-containing acetonitrile solution was added for protein precipitation, and a resulting mixture was vortexed for 5 min and then centrifuged in a centrifuge at 5,500 g for 10 min; and 100 μL of a resulting supernatant was taken, 300 μL of 50%-methanol water was added for dilution, a resulting dilution was vortexed, and 5 μL of a vortexed dilution was injected. In vivo drug concentrations of LHY-AB614, abiraterone acetate, and abiraterone were determined by HPLC-MS/MS.

[4] = Solubility test in normal saline; type: physicochemical; conditions: saline or isotonic, thermodynamic from solid
Method: 200 mg of LHY-AB614-622 was weighed, and 1 mL of normal saline was added.
2 mg of abiraterone acetate was weighed and dissolved in 1 mL of normal saline, a resulting solution was stirred overnight and then subjected to suction filtration, and a resulting filtrate was subjected to HPLC analysis. Abiraterone acetate was dissolved in methanol to prepare a 0.1 mg/mL solution as a control.

[5] = cited from earlier work
[6] = Beagle, dog, in vivo, po, 46.8 mg/kg

In the case of `CN(C)CCOCCOC(=O)O[C@H]1CC[C@@]2(C)C(=CC[C@@H]3[C@@H]2CC[C@]2(C)C(c4cccnc4)=CC[C@@H]32)C1` [Compound represented by formula I], the IC50 ([1]; Homo sapiens) is reported as 5.7 µM, the Max inhibition [1] is reported as 99.31% and the IC50 ([2]; Homo sapiens, LNCaP-Clone-FGC) is reported as 3.2 µM. The Max inhibition [2] was 99.49%.
For `CC(=O)O[C@H]1CC[C@@]2(C)C(=CC[C@@H]3[C@@H]2CC[C@]2(C)C(c4cccnc4)=CC[C@@H]32)C1` [Abiraterone acetate, abiraterone acetate], the IC50 ([1]; Homo sapiens) was over 50 µM, the Max inhibition [1] was 29.43% and the “species detected in vivo after administration” value ([3]; oral, Beagle dogs, plasma, HPLC-MS/MS) was “Only abiraterone is detected in vivo”. The solubility [4] was under 100 µg/mL, the death risk reduced ([5]; combination with prednisone versus placebo and prednisone) was 35% and the “median survival time prolonged versus placebo and prednisone” value ([5]; combination with prednisone, p<0.0001) was 3.9 months. The median survival time ([5]; patient treated with a combination of abiraterone acetate and prednisone) was 14.8 months, the IC50 ([2]; Homo sapiens, LNCaP-Clone-FGC) was 15.5 µM and the Max inhibition [2] was 78.30%.
`N.N.[Cl][Pt][Cl]` [Cisplatin] gave a Max inhibition [1] of 85.02%, an IC50 [1] of 40.3 µM and a Max inhibition [2] of 97.49%. The IC50 [2] was 12.8 µM.
For `CN(C)CCOCCOC(=O)O[C@H]1CC[C@@]2(C)C(=CC[C@@H]3[C@@H]2CC[C@]2(C)C(c4cccnc4)=CC[C@@H]32)C1` [LHY-AB614], the IC50 ([1]; Homo sapiens) was 5.7 µM, the “species detected in vivo after administration” value ([3]; Beagle, dog, in vivo, po) was “LHY-AB614 and abiraterone both can be detected in vivo” and the AUC0-inf [3, 6] was 6186 ng·h/mL. The AUC0-t [3, 6] was 6116 ng·h/mL, the AUC(0-inf) [3, 6] was 1060 ng·h/mL and the AUC(0-t) [3, 6] was 908 ng·h/mL. The “Cls, app” value [3, 6] was 757, the T1/2 [3, 6] was 3.7 h and the Tmax [3, 6] was 1.5 h. For the same compound, the half-life [3, 6] was 6.8 h, the “AUC compared with the administration of abiraterone acetate” value ([3]; dog, in vivo, po) was “significantly increases” and the “Cmax of abiraterone compared with Cmax of LHY-AB614” value ([3]; dog, in vivo, po) was “much higher”. For the same compound, the “Cmax of abiraterone compared with the administration of abiraterone acetate” value ([3]; dog, in vivo, po) was “significantly increases”, the “Tmax compared with the administration of abiraterone acetate” value ([3]; dog, in vivo, po) was “does not change” and the IC50 ([2]; Homo sapiens, LNCaP-Clone-FGC) was 3.2 µM.
